Key:
FIX-deficient plasma = assay: Thrombin generation assay in FIX-deficient plasma; type: biochemical; details: 100 nM TM, 2 μg/ml heparan sulfate
Procedure: (§1) (A) Representative thrombin generation curves in FVIII-deficient and FIX-deficient plasma performed in the presence of heparan sulfate (2 μg/ml), TM (100 nM) and varying concentrations of DrKIn-I (●, 0 nM; ▪, 20 nM; ▴, 40 nM; ▾, 80 nM; ◯, 200 nM). Dashed lines represent thrombin generation in the absence of TM and DrKIn-I. (B-C) Activity in FVIII-deficient (B) and FIX-deficient (C) plasma. Left panels show ETP; right panels, peak thrombin. For comparison, dashed lines represent the activity of normal plasma containing TM and heparan sulfate in the absence of the inhibitor. Results are represented as means±SEM of at least three independent experiments.
(§2) Briefly, 80 μl of either normal plasma, protein C-deficient plasma, FVIII-deficient plasma or FIX deficient plasma containing 2 μM corn trypsin inhibitor, 2 μg/ml heparan sulfate (four disaccharide units long), 30 μM DOPC/DOPS/DOPE (60:20:20) and 100 nM recombinant TM was incubated with 20 μl of 500-fold diluted TF solution (Innovin; Dade Behring) in the absence or presence of the indicated concentrations of DrKIn-I. Following incubation for 3 minutes at 37° C., thrombin generation was initiated by the dispensation of 20 μl of 2.5 mM fluorogenic substrate (Z-Gly-Gly-Arg-AMC.HCl) dissolved in 0.15 M NaCl, 60 mg/ml BSA and 100 mM CaCl2. […] Results were evaluated using the Technothrombin TGA software (Technoclone).

FVIII-deficient plasma = assay: Thrombin generation assay in FVIII-deficient plasma; type: biochemical; details: 100 nM TM, 2 μg/ml heparan sulfate
Procedure: as §1, §2

## DrKIn-I (CGGNDNNFETRKKCRQTCGAPRKGRPT)
FIX-deficient plasma
  DrKIn-I concentration correcting ETP to normal levels: 160 nM
  peak thrombin level relative to normal plasma (partial correction): approximately 85%
FVIII-deficient plasma
  DrKIn-I concentration correcting ETP to normal levels: 60 nM
  DrKIn-I concentration correcting peak thrombin to normal levels: 130 nM

From patent publication US9206246B2, “Heparin/heparan sulfate-dependent inhibitors of activated protein C and uses thereof in treating hemophilic disorders” (Academia Sinica, priority 2012, dated 2015)
